Assays:
Assay type in all cases: in vivo
[1] = tested on: Spodoptera littoralis (Egyptian cotton leaf worm); test: Example B2: Activity against Spodoptera littoralis, systemic via lettuce roots in agar; settings: 144 h, test rate 12.5 ppm, uptake by lettuce roots from agar, 6 days after infestation, read-out: effect in at least one of the three categories (mortality, anti-feeding, or growth inhibition)
Excerpt: Example B2: Activity against Spodoptera littoralis (Egyptian cotton leaf worm) Test compounds were applied by pipette from 10′000 ppm DMSO stock solutions into 24-well plates and mixed with agar. Lettuce seeds were placed onto the agar and the multi well plate was closed by another plate which contained also agar. After 7 days the compound was absorbed by the roots and the lettuce grew into the lid plate. The lettuce leaves were then cut off into the lid plate. Spodoptera eggs were pipetted through a plastic stencil onto a humid gel blotting paper and the lid plate was closed with it. The samples were assessed for mortality, anti-feedant effect and growth inhibition in comparison to untreated samples 6 days after infestation.

[2] = tested on: Myzus persicae (Green Peach Aphid); test: Example B5: Activity against Myzus persicae, sprayed sunflower leaf discs; settings: foliar, 144 h, application rate 200 ppm, mixed-age aphids, 6 days after infestation
Experimental: Example B5: Activity Against Myzus persicae (Green Peach Aphid)
Sunflower leaf discs were placed onto agar in a 24-well microtiter plate and sprayed with aqueous test solutions prepared from 10′000 ppm DMSO stock solutions. After drying, the leaf discs were infested with an aphid population of mixed ages. The samples were assessed for mortality 6 days after infestation.

[3] = tested on: Myzus persicae (Green Peach Aphid); test: Example B6: Activity against Myzus persicae, systemic via pea seedling roots; settings: 144 h, test rate 24 ppm, roots of infested pea seedlings in test solution, 6 days
Experimental: Example B6: Activity Against Myzus persicae (Green Peach Aphid)
Roots of pea seedlings infested with an aphid population of mixed ages were placed directly in the aqueous test solutions prepared from 10′000 DMSO stock solutions. The samples were assessed for mortality 6 days after placing seedlings in test solutions.

[4] = tested on: Euschistus heros (Neotropical Brown Stink Bug); test: Example B8: Activity against Euschistus heros, sprayed soybean leaves; settings: 120 h, application rate 200 ppm, N2 nymphs, 5 days after infestation, read-out: effect in at least one of the two categories (mortality or growth inhibition)
Experimental: Example B8: Activity Against Euschistus heros (Neotropical Brown Stink Bug)
Soybean leaves on agar in 24-well microtiter plates were sprayed with aqueous test solutions prepared from 10′000 ppm DMSO stock solutions. After drying the leaves were infested with N2 nymphs. The samples were assessed for mortality and growth inhibition in comparison to untreated samples 5 days after infestation.

[5] = tested on: Diabrotica Balteata (Corn Root Worm); test: Example B4: Activity against Diabrotica balteata, sprayed maize sprouts; settings: 96 h, application rate 200 ppm, L2 larvae, 4 days after infestation, read-out: effect in at least one of the two categories (mortality or growth inhibition)
Experimental: Example B4: Activity Against Diabrotica Balteata (Corn Root Worm)
Maize sprouts, placed onto an agar layer in 24-well microtiter plates were treated with aqueous test solutions prepared from 10′000 ppm DMSO stock solutions by spraying. After drying, the plates were infested with L2 larvae (6 to 10 per well). The samples were assessed for mortality and growth inhibition in comparison to untreated samples 4 days after infestation.

[6] = tested on: Spodoptera littoralis (Egyptian cotton leaf worm); test: Example B1: Activity against Spodoptera littoralis, sprayed cotton leaf discs; settings: foliar, 72 h, application rate 200 ppm, L1 larvae, 3 days after infestation
Experimental: Example B1: Activity against Spodoptera littoralis (Egyptian cotton leaf worm) Cotton leaf discs were placed onto agar in 24-well microtiter plates and sprayed with aqueous test solutions prepared from 10′000 ppm DMSO stock solutions. After drying the leaf discs were infested with five L1 larvae. The samples were assessed for mortality, anti-feeding effect, and growth inhibition in comparison to untreated samples 3 days after infestation. Control of Spodoptera littoralis by a test sample is given when at least one of the categories mortality, anti-feedant effect, and growth inhibition is higher than the untreated sample.

[7] = tested on: Plutella xylostella (Diamond Back Moth); test: Example B3: Activity against Plutella xylostella, artificial diet; settings: 120 h, application rate 200 ppm, L2 larvae, 5 days after infestation, read-out: effect in at least one of the two categories (mortality or growth inhibition)
Experimental: Example B3: Activity Against Plutella xylostella (Diamond Back Moth)
24-well microtiter plates with artificial diet were treated with aqueous test solutions prepared from 10′000 ppm DMSO stock solutions by pipetting. After drying, the plates were infested with L2 larvae (10 to 15 per well). The samples were assessed for mortality and growth inhibition in comparison to untreated samples 5 days after infestation.

[8] = tested on: Bemisia tabaci (Cotton White Fly); test: Example B7: Activity against Bemisia tabaci, sprayed cotton leaf discs; settings: foliar, 144 h, application rate 200 ppm, adult white flies, 6 days after incubation
Experimental: Example B7: Activity Against Bemisia tabaci (Cotton White Fly)
Cotton leaf discs were placed onto agar in 24-well microtiter plates and sprayed with aqueous test solutions prepared from 10′000 ppm DMSO stock solutions. After drying the leaf discs were infested with adult white flies. The samples were checked for mortality 6 days after incubation.

CCS(=O)(=O)c1ccc(N)nc1-n1cc2cnc(C(F)(F)F)cc2n1 [Compound P16, 5-ethylsulfonyl-6-[6-(trifluoromethyl)pyrazolo[4,3-c]pyridin-2-yl]pyridin-2-amine]
≥ 80%: percent effect (mortality, anti-feeding or growth inhibition) at 12.5 ppm [1] | mortality at 200 ppm [2] | mortality at 24 ppm [3] | percent effect (mortality or growth inhibition) at 200 ppm [4] | percent effect (mortality or growth inhibition) at 200 ppm [5] | percent control (mortality, anti-feedant effect or growth inhibition) at 200 ppm [6] | percent effect (mortality or growth inhibition) at 200 ppm [7]

CCS(=O)(=O)c1ccc(-n2cnc(Cl)n2)nc1-n1cc2cnc(C(F)(F)F)cc2n1 [Compound P25]
≥ 80%: mortality at 200 ppm [2] | percent effect (mortality or growth inhibition) at 200 ppm [4] | percent effect (mortality or growth inhibition) at 200 ppm [5] | mortality at 200 ppm [8] | percent control (mortality, anti-feedant effect or growth inhibition) at 200 ppm [6] | percent effect (mortality or growth inhibition) at 200 ppm [7]

CCS(=O)(=O)c1cc(Cl)c(N)nc1-n1cc2cnc(C(F)(F)F)cc2n1 [Compound P19, 3-chloro-5-ethylsulfonyl-6-[6-(trifluoromethyl)pyrazolo[4,3-c]pyridin-2-yl]pyridin-2-amine]
≥ 80%: percent effect (mortality, anti-feeding or growth inhibition) at 12.5 ppm [1] | mortality at 200 ppm [2] | percent effect (mortality or growth inhibition) at 200 ppm [4] | percent effect (mortality or growth inhibition) at 200 ppm [5] | percent control (mortality, anti-feedant effect or growth inhibition) at 200 ppm [6] | percent effect (mortality or growth inhibition) at 200 ppm [7]

CCS(=O)(=O)c1ccc(-n2cccn2)nc1-n1nc2cc(C(F)(F)F)ncc2c1Cl [Compound P11]
≥ 80%: mortality at 200 ppm [8]

From patent US20190031667A1, “PESTICIDALLY ACTIVE HETEROCYCLIC DERIVATIVES WITH SULPHUR CONTAINING SUBSTITUENTS” (SYNGENTA PARTICIPATIONS AG, priority 2016, published 2019)
